Measurements taken from DBAASP.
Values after ≈ are worked out from the molar mass of the structure shown. Each block holds one compound with its values, some of them ahead of it.

Tests used:
Test in all cases: ≥ marks a high value that may be exact or a test limit, other limits are often not marked, values filed in µg/mL are converted to µM
Escherichia coli BL21 = test system: Escherichia coli BL21
[1] = test system: Pseudomonas aeruginosa PAO1
[2] = test system: Streptococcus pyogenes M1T1 5448
[3] = test system: Staphylococcus aureus NCTC 12981
[4] = test system: Escherichia coli NCTC 10418
[5] = test system: Bacillus licheniformis X39
[6] = test system: Psychrobacter faecalis X29
[7] = test system: Staphylococcus carnosus KHS
[8] = test system: Rhodococcus rhodochrous X15
[9] = test system: Staphylococcus aureus ATCC 2592
[10] = test system: Candida albicans ATCC 2002
[11] = test system: Candida albicans ATCC 90028
[12] = test system: Staphylococcus aureus ATCC 25923
[13] = test system: Escherichia coli CIB 84492
[14] = test system: Escherichia coli ATCC 25922
[15] = test system: Pseudomonas aeruginosa CMCCB 10104
[16] = test system: Staphylococcus aureus CIB 85462
[17] = test system: Staphylococcus aureus NCTC 8325
[18] = test system: Shigella flexneri ATCC 203
[19] = test system: Staphylococcus epidermidis ATCC 12228
[20] = test system: Corynebacterium diphtheriae ATCC 8024
[21] = test system: Candida albicans ATCC 36232
[22] = test system: Escherichia coli ATCC 2592
[23] = test system: Micrococcus luteus ATCC 9341
[24] = test system: Pseudomonas aeruginosa ATCC 9027
Staphylococcus aureus = test system: Staphylococcus aureus
[25] = test system: Bacillus subtilis ATCC 6633
[26] = test system: Staphylococcus aureus ATCC 6538
[27] = test system: Salmonella enterica subsp. enterica serovar Enteritidis
Listeria innocua = test system: Listeria innocua
Escherichia coli = test system: Escherichia coli
Micrococcus luteus A270 = test system: Micrococcus luteus A270
[28] = test system: Pseudomonas aeruginosa H1001

MIC (Escherichia coli BL21): 1 µM (≈ 3.13 µg/mL) | MIC [1]: 4 µM (≈ 12.5 µg/mL) | MIC [2]: 4 µM (≈ 12.5 µg/mL)
Structure (SMILES): CC[C@H](C)[C@H](NC(=O)[C@H](CCC(=O)O)NC(=O)[C@H](CCCN=C(N)N)NC(=O)[C@H](CCCN=C(N)N)NC(=O)[C@H](CC(C)C)NC(=O)[C@H](Cc1ccc(O)cc1)NC(=O)[C@H](CCCCN)NC(=O)[C@H](C)NC(=O)[C@@H](NC(=O)[C@@H](NC(=O)[C@H](CCC(N)=O)NC(=O)[C@H](CCCN=C(N)N)NC(=O)[C@H](Cc1c[nH]c2ccccc12)NC(=O)[C@H](C)N)[C@@H](C)O)[C@@H](C)CC)C(=O)N[C@@H](CCCN=C(N)N)C(=O)N[C@@H](CCCCN)C(=O)N[C@@H](CCCN=C(N)N)C(=O)NCC(=O)N[C@@H](CCCN=C(N)N)C(=O)N[C@@H](CCCCN)C(=O)N[C@@H](C)C(=O)N[C@H](C(=O)N[C@H](C(=O)N[C@@H](C)C(=O)N[C@@H](Cc1c[nH]c2ccccc12)C(=O)O)[C@@H](C)CC)C(C)C [AWRQTIAKYLRREIRKRGRKAVIAW]

MIC [3]: ≥ 166 µM | MIC [4]: ≥ 166 µM
Structure (SMILES): NC(=O)[C@H](Cc1ccccc1)NC(=O)[C@H](CCCN=C(N)N)NC(=O)[C@H](Cc1ccccc1)NC(=O)[C@H](CCCN=C(N)N)NC(=O)[C@@H](N)Cc1ccccc1 [FRFRF]

MIC [5]: 3.2 µM (≈ 12.4 µg/mL) | MIC [6]: 1.6 µM (≈ 6.22 µg/mL) | MIC [7]: 3.2 µM (≈ 12.4 µg/mL) | MIC [8]: 0.8 µM (≈ 3.11 µg/mL) | MIC [9]: 1.6 µM (≈ 6.22 µg/mL)
Structure (SMILES): CC[C@H](C)[C@H](NC(=O)CN)C(=O)N[C@@H](Cc1ccccc1)C(=O)N[C@@H](CO)C(=O)N[C@@H](CC(C)C)C(=O)N[C@@H](Cc1ccccc1)C(=O)N[C@@H](CCCCN)C(=O)N[C@@H](C)C(=O)NCC(=O)N[C@@H](C)C(=O)N[C@@H](CCCCN)C(=O)N[C@@H](Cc1ccccc1)C(=O)N[C@@H](Cc1ccccc1)C(=O)NCC(=O)N[C@@H](CCCCN)C(=O)N[C@@H](Cc1cnc[nH]1)C(=O)N[C@@H](CC(C)C)C(=O)N[C@@H](CC(C)C)C(=O)N[C@@H](CCCCN)C(=O)N[C@@H](CCC(N)=O)C(=O)N[C@@H](C)C(=O)NCC(=O)N[C@@H](CCCCN)C(=O)N[C@@H](C)C(=O)NCC(=O)N[C@@H](C)C(=O)N[C@@H](CCC(=O)O)C(=O)N[C@@H](Cc1cnc[nH]1)C(=O)N[C@@H](CC(C)C)C(=O)N[C@@H](C)C(=O)N[C@H]1CSSC[C@@H](C(=O)O)NC(=O)[C@H](CCC(N)=O)NC(=O)[C@H](CC(N)=O)NC(=O)[C@H]([C@@H](C)O)NC(=O)[C@H](C)NC(=O)[C@H](CCCCN)NC1=O [GIFSLFKAGAKFFGKHLLKQAGKAGAEHLACKATNQC]

MIC [10]: 1.33 µM (≈ 5.1 µg/mL) | MIC [11]: ≥ 100 µM | MIC [12]: 1.33 µM (≈ 5.1 µg/mL) | MIC [13]: ≥ 33.5 µM | MIC [14]: 2.67 µM (≈ 10.2 µg/mL) | MIC [15]: 2.67 µM (≈ 10.2 µg/mL) | MIC [16]: 8.37 µM (≈ 32 µg/mL) | MIC [17]: ≥ 50 µM
Structure (SMILES): CC[C@H](C)[C@H](NC(=O)[C@H](CC(C)C)NC(=O)[C@H](CCCCN)NC(=O)[C@H](C)NC(=O)[C@H](C)NC(=O)CNC(=O)[C@H](CCCCN)NC(=O)[C@@H](NC(=O)[C@H](CC(C)C)NC(=O)[C@@H](NC(=O)[C@H](Cc1ccccc1)NC(=O)[C@H](CC(C)C)NC(=O)CN)[C@@H](C)O)[C@@H](C)CC)C(=O)NCC(=O)N[C@@H](CCCCN)C(=O)N[C@H](C(=O)N[C@H](C(=O)N[C@@H](C)C(=O)N[C@@H](CCCCN)C(=O)N[C@@H](CCC(=O)O)C(=O)N[C@@H](C)C(=O)NCC(=O)N[C@@H](CCCCN)C(=O)N[C@H](C(=O)NCC(=O)N[C@@H](CC(C)C)C(=O)N[C@@H](CCC(=O)O)C(=O)N[C@@H](CC(C)C)C(=O)N[C@@H](CCSC)C(=O)N[C@@H](C)C(=O)N[C@H]1CSSC[C@@H](C(=O)O)NC(=O)[C@H](CCC(N)=O)NC(=O)[C@H](CC(N)=O)NC(=O)[C@H]([C@@H](C)O)NC(=O)[C@H]([C@@H](C)CC)NC(=O)[C@H](CCCCN)NC1=O)[C@@H](C)O)C(C)C)[C@@H](C)O [GLFTLIKGAAKLIGKTVAKEAGKTGLELMACKITNQC]

MIC [18]: ≥ 58.6 µM | MIC [19]: > 58.6 µM | MIC [20]: ≥ 58.6 µM | MIC [21]: ≥ 58.6 µM | MIC [22]: ≥ 58.6 µM | MIC [23]: ≥ 58.6 µM | MIC [24]: > 58.6 µM | MIC (Staphylococcus aureus): > 58.6 µM | MIC [25]: ≥ 58.6 µM | MIC [26]: > 58.6 µM
Structure (SMILES): CC(C)C[C@H](NC(=O)[C@H](CS)NC(=O)[C@H](Cc1cnc[nH]1)NC(=O)[C@H](C)NC(=O)[C@H](C)NC(=O)[C@H](CS)NC(=O)[C@H](C)NC(=O)[C@H](C)NC(=O)[C@H](CC(=O)O)NC(=O)[C@@H](N)CC(N)=O)C(=O)N[C@@H](Cc1ccccc1)C(=O)N[C@@H](CCCN=C(N)N)C(=O)NCC(=O)N[C@@H](CCCN=C(N)N)C(=O)N[C@@H](CO)C(=O)NCC(=O)NCC(N)=O [NDAACAAHCLFRGRSGG]

MIC [27]: 9 µM (≈ 11.1 µg/mL) | MIC (Listeria innocua): 1 µM (≈ 1.24 µg/mL) | MIC (Escherichia coli): 9 µM (≈ 11.1 µg/mL) | MIC (Micrococcus luteus A270): 1 µM (≈ 1.24 µg/mL)
Structure (SMILES): C[C@@H](O)[C@H](NC(=O)[C@H](CCCCN)NC(=O)[C@@H](NC(=O)[C@@H](NC(=O)[C@@H]1CCCN1)[C@@H](C)O)[C@@H](C)O)C(=O)N[C@@H](Cc1ccc(O)cc1)C(=O)N[C@@H](Cc1ccccc1)C(=O)N1CCC[C@H]1C(=O)N[C@@H](Cc1cnc[nH]1)C(=O)N[C@@H](Cc1ccccc1)C(=O)O [PTTKTYFPHF]

MIC [23]: 3.1 µM (≈ 3.36 µg/mL) | MIC [28]: ≥ 231 µM
Structure (SMILES): NC(=O)[C@H](CCCN=C(N)N)NC(=O)[C@H](CCCN=C(N)N)NC(=O)[C@H](Cc1c[nH]c2ccccc12)NC(=O)[C@@H]1CCCN1C(=O)[C@H](Cc1c[nH]c2ccccc12)NC(=O)[C@H](Cc1c[nH]c2ccccc12)NC(=O)[C@@H]1CCCN1 [PWWPWRR]

MIC [3]: ≥ 104 µM | MIC [4]: ≥ 104 µM
Structure (SMILES): CC(C)C[C@H](NC(=O)[C@H](CCCN=C(N)N)NC(=O)[C@@H]1CCCN1C(=O)[C@H](CCCN=C(N)N)NC(=O)[C@H](CCCN=C(N)N)NC(=O)[C@@H]1CCCN1C(=O)[C@@H](N)CCCN=C(N)N)C(=O)N1CCC[C@H]1C(=O)N[C@@H](Cc1c[nH]c2ccccc12)C(N)=O [RPRRPRLPW]

MIC [28]: 1.47 µM (≈ 2 µg/mL)
Structure (SMILES): CC[C@H](C)[C@H](NC(=O)[C@H](CCCN=C(N)N)NC(=O)[C@H](Cc1ccc(O)cc1)NC(=O)[C@H](Cc1c[nH]c2ccccc12)NC(=O)[C@H](CCCN=C(N)N)NC(=O)[C@@H](NC(=O)[C@@H](N)CCCN=C(N)N)C(C)C)C(=O)N[C@@H](Cc1ccccc1)C(=O)N[C@@H](Cc1ccc(O)cc1)C(N)=O [RVRWYRIFY]

MIC [18]: ≥ 87.4 µM | MIC [19]: > 87.4 µM | MIC [20]: ≥ 87.4 µM | MIC [21]: ≥ 87.4 µM | MIC [22]: ≥ 87.4 µM | MIC [23]: ≥ 87.4 µM | MIC [24]: > 87.4 µM | MIC (Staphylococcus aureus): > 87.4 µM | MIC [25]: ≥ 87.4 µM | MIC [26]: > 87.4 µM
Structure (SMILES): CC(C)[C@H](NC(=O)[C@H](CS)NC(=O)[C@@H](NC(=O)[C@H](CCCN=C(N)N)NC(=O)[C@H](CCCCN)NC(=O)CNC(=O)[C@H](CC(N)=O)NC(=O)[C@H](CS)NC(=O)[C@@H](N)Cc1ccc(O)cc1)C(C)C)C(=O)N[C@@H](CS)C(N)=O [YCNGKRVCVC]
